Measurements reported in patent publication US5840911A, “Imidazole derivatives, their preparation and their use as S-adenosylmethionine decarboxylase (=SAMDC) inhibitors” (Novartis AG, priority 1995, dated 1998).
Counter-ions that a name gives are not always drawn. Like-named read-outs stand apart in the source and are kept apart here.

What was measured:
[1] = target: T1, S-adenosylmethionine decarboxylase (SAMDC) (Rattus norvegicus, UniProt P17708); assay: Inhibition of S-adenosylmethionine decarboxylase (SAMDC); type: biochemical; details: read-out: IC50, inhibition of the enzyme SAMDC
T1 sequence (P17708 68-333 limits assumed): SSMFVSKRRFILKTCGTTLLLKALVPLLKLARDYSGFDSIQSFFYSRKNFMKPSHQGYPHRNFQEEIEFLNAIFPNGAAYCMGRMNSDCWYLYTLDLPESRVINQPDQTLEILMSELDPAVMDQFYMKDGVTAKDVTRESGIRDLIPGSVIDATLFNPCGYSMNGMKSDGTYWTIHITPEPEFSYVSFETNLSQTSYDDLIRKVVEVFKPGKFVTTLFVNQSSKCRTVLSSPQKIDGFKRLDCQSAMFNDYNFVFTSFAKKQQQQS
T1 sequence (P17708 1-67 limits assumed): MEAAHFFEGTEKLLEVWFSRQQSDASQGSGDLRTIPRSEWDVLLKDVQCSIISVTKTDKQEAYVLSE

[2] = tested on: human T24 bladder carcinoma cells; assay: Inhibition of the growth of human T24 bladder carcinoma cells; type: cell-based; details: 120 h, 5 days incubation, concentration at half the maximum inhibition
Method: The carcinoma cells (1000-1500; ATCC HB 4) are transferred to 96-well microtitre plates and are incubated overnight under the said conditions. The test compound is added in serial dilutions on day 1. The plates are incubated under the said conditions for 5 days. During that period, control cultures undergo at least 4 cell divisions. After the incubation, the cells are fixed with 3.3% (weight/volume=w/v) aqueous glutaraldehyde solution, washed with water and stained with 0.05% (w/v) aqueous methylene blue solution. After washing, the dye is eluted with 3% (w/v) aqueous hydrochloric acid. The optical density (OD) per well, which is directly proportional to the number of cells, is then measured by means of a photometer (Titertek multiskan) at 665 nm. The IC50 values are calculated by means of a computer system using the formula [formula] The IC50 value is defined as the concentration of active ingredient at which the number of cells per well at the end of the incubation period is only 50% of the number of cells in the control cultures. The inhibition of the growth of human T24 bladder carcinoma cells is measured using the method mentioned hereinbefore. The following IC50 values (concentration of the test compound at half the maximum inhibition) are determined using the following Examples: […]

[3] = tested on: human T24 bladder cell carcinomas; assay: Inhibition of the growth of T24 bladder carcinoma cells in vivo (nude mouse); design: species or system human; BALB/c nude mice; details: for T/C on i.p. administration / T/C on p.o. administration: average for 6 animals
Method: W. Porter (see Cancer Res. 54, 3210-3217 (1994)). Briefly, the procedure is as follows: To determine the maximum tolerable dose (MTD), the compounds according to the invention (for example dissolved in distilled water/0.9% NaCl) are injected i.p. into three mice per group. The dose is increased until the first animals die within a period of 10 days. To determine the anti-tumor activity, for example, small pieces of human T-24 bladder carcinoma cells (ATCC HTB 4) are cultured and transplanted as xenogenic transplants ("xenografts") into female BALB/c nude mice (Bomholtgarden, Copenhagen, Denmark). The anti-tumor treatment using compounds of formula I is started after at least three successive transplants. Tumor fragments weighing approximately 25 mg are transplanted into the left flank of the mouse (n=6 per group). Treatment is started as soon as the tumors have an average tumor volume of from 150 to 200 mm^3. The growth of the tumors is determined twice weekly by measuring mutually perpendicular tumor diameters. The tumor volumes are determined in the manner described by U. Regenass, H. Mett, J. Stanek, M. Muller, D. Kramer and C. W. Porter (see Cancer Res. 54 3210-3217 (1994)) and are given as relative tumor size (i.e. increase in tumor volume relative to the tumor volume at the beginning of treatment) in T/C % (percent treated/control). The test compounds are dissolved in distilled water and diluted with 3 volumes of 0.9% (w/v) NaCl in water.
Using the method mentioned hereinbefore (see also Regenass et al., Cancer Res. 54, 3210-3217 ([…])), the compound of Example 2 of the present Application is administered in accordance with the following treatment scheme to BALB/c nude mice with transplanted human T24 bladder cell carcinomas: The compound is administered p.o. (50, 25 and 12.5 mg/kg) or i.p. (12.5, 6.25 and 3.13 mg/kg). The compound is dissolved in distilled water and diluted with 3 volumes of 0.9% NaCl (w/v) in water.

[4] = Maximum tolerable dose (MTD); design: species or system mice; details: mouse, in vivo, read-out: maximum tolerated dose

Structure (SMILES) | IC50 [1] [nM] | IC50 [2] [nM] | other results
N=C(N)c1cccc2c1CCC2=Nn1cc(-c2ccccc2)nc1N [Example 2, 1-[4-(Amidino)-2,3-dihydro-1H-inden-1: -ylideneamino]-2-amino-4-phenyl-imidazole dihydrochloride] | 2 | 1160 | T/C on i.p. administration ([3]; 3.13 mg/kg): 34%; T/C on i.p. administration ([3]; 6.25 mg/kg): 22%; T/C on i.p. administration ([3]; 12.5 mg/kg): 16%; growth of T24 bladder carcinoma cells in vivo (in words) ([3]; oral and intraperitoneal administration): inhibits the growth of T24 bladder carcinoma cells; dose-dependence of tumor growth inhibition ([3]; p.o. and i.p.): dose-dependence of the action is observed; T/C on p.o. administration ([3]; 12.5 mg/kg): 68%; T/C on p.o. administration ([3]; 25 mg/kg): 47%; T/C on p.o. administration ([3]; 50 mg/kg): 31%; MTD at 240 h ([4]; ip): 125 mg/kg; MTD at 240 h ([4]; po): > 500 mg/kg
COc1ccc(-c2cn(N=C3CCc4c(C(=N)N)cccc43)c(N)n2)cc1 [Example 4, 1-[4-(Amidino)-2,3-dihydro-1H-inden-1-ylideneamino]-2-amino-4-(4-methoxvphenyl)-imidazole dihydrochloride] | 3.6 | 2000 | 
COc1ccccc1-c1cn(N=C2CCc3c(C(=N)N)cccc32)c(N)n1 [Example 6, 1-[4-(Armidino)-2,3-dihydro-1H-inden-1-ylideneamino]-2-amino-4-(2-methoxyphenyl)-imidazole dihydrochloride] | 8.4 | 1200 | 
COc1ccc(OC)c(-c2cn(N=C3CCc4c(C(=N)N)cccc43)c(N)n2)c1 [Example 8, 1-[4-(Amidino)-213-dihydro-1H-inden-1-ylideneamino]-2-amino-4-(2,5-di-methoxyphenyl)-imidazole dihydrochloride] | 8.9 | 1600 | 
COc1cccc(-c2cn(N=C3CCc4c(C(=N)N)cccc43)c(N)n2)c1 [Example 10, 1-[4-(Amidino)-2,3-dihydro-1 1H-inden-1-ylideneamino]-2-amino-4-(3-methoxyphenyl)-imidazole dihydrochloride] | 4.2 | 2600 | 
N=C(N)c1cccc2c1CCC2=Nn1cc(-c2ccc(Cl)cc2)nc1N [Example 12, 1-[4-(Amidino)-2,3-dihydro-1H-inden-1-ylideneamino]-2-amino-4-(4-chlorophenyl)-imidazole dihydrochloride] | 6.7 | 1550 | 
Cc1ccc(-c2cn(N=C3CCc4c(C(=N)N)cccc43)c(N)n2)cc1 [Example 14, 1-[4-(Amidino)-2,3-dihydro-1H-inden-1-ylideneamino]-2-amino-4-(4-tolyl)-imidazole dihydrochloride] | 3.4 | 1120 | 
N=C(N)c1cccc2c1CCC2=Nn1cc(-c2ccc(F)cc2)nc1N [Example 16, 1-[4-(Amidino)-2,3-dihydro-1H-inden-1-ylideneamino]-2-amino-4-(4-fluoro-phenyl)-imidazole dihydrochloride] | 4 | 2700 | 
CCc1cn(N=C2CCc3c(C(=N)N)cccc32)c(N)n1 [Example 18, 1-[4-(Amidino)-2,3-dihydro-1H-inden-1-ylideneamino]-2-amino-4-ethyl-imidazole dihydrochloride] | 6.1 | 1500 | 
N=C(N)c1cccc2c1CCC2=NN1CCN=C1N [Example 20, 1-[4-(Amidino)-2,3-dihydro-1H-inden-1-ylideneamino]-2-amino-4,5-di-hydro-imidazole dihydrochloride] | 3.4 | 280 | 
N=C(N)c1cccc2c1CCC2=Nn1cc(-c2ccc(-c3ccccc3)cc2)nc1N [Example 22, 1-[4-(Amidino)-2,3-dihydro-1H-inden-1-ylideneamino]-2-amino-4-(4-bi-phenylyl)-imidazole dihydrochloride] | 11 | 440 | 
N=C(N)c1cccc2c1CCC2=Nn1cc(-c2ccc3ccccc3c2)nc1N [Example 24, 1-[4-(Amidino)-2,3-dihydro-1H-inden-1-ylideneamino]-2-amino-4-(2-naphthyl)-imidazole dihydrochloride] | 7.5 | 2460 | 
N=C(N)c1cccc2c1CCC2=Nn1ccnc1N [Example 26, 1-[4-(Amidino)-2,3-dihydro-1H-inden-1-ylideneamino]-2-amino-imidazole dihydrochloride] |  | 2150 | 
CC(C)(C)c1ccc(-c2cn(N=C3CCc4c(C(=N)N)cccc43)c(N)n2)cc1 [Example 28, 1-[4-(Amidino)-2,3-dihydro-1H-inden-1-ylideneaminol-2-amino-4-(4-tert-butylphenyl)-imidazoledihydrochloride] | 5.4 | 230 | 
